In general, Cmax refers to the peak of the concentration-time curve.

Structures are written as SMILES. Converted amounts (≈) assume the structure as drawn. Where two headings read alike, the source gives them in different places.

For data set [1] the following is noted: in vivo, po. The procedure:
(§1) Only the latter are biologically active per se. Also, both original ester and parent penicillin were measured.

Data set [2] in a line: Bioassay of amoxicillin from the ester. To be noted: 20 mg. ester in 10 ml. of 50/50 acetone/pH 7.0 buffer.
Data set [3] can be described thus: Oral absorption in man, BL-P1780 Study 101. The conditions noted are these: for Cmax: saliva. On the procedure: as §1
Three formulations were each administered once orally to six (6) healthy adult male subjects in BL-P1780 Study 101 as follows:
A. BL-P1780, 500 mg. (of amoxicillin-equivalent activity) as two 250 mg. buffered tablets.
B. BL-P1780, 500 mg. (an amoxicillin-equivalent activity) as two 250 mg. buffered tablets with 3.5 g. sodium bicarbonate being taken five minutes prior to the adminstration of BL-P1780.
C. Amoxicillin, 500 mg. as two 250 mg. capsules.
1. To investigate the human safety and tolerance of single 500 mg. doses of BL-P1780.
2. To determine the effect of intragastric buffering with sodium bicarbonate on the absorption of BL-P1780.
3. To compare amoxicillin plasma and saliva concentrations and urinary excretion between BL-P1780 and amoxicillin.

The test system of a further data set is Ps. aeruginosa. The data set is described as follows: MIC against various organisms (Table I). It counts as cell-based. To be noted: Pseudomonas aeruginosa, read-out: minimum inhibitory concentration.
A further data set has as its system D. pneumoniae. The data set is described as follows: MIC against various organisms (Table I). The format is cell-based. To be noted: Streptococcus pneumoniae; D. pneumoniae + 5% serum; read-out: minimum inhibitory concentration.
The subject of a further data set is S. aureus BX1633. Description: MIC against various organisms (Table I). It counts as cell-based. The conditions noted are these: Staphylococcus aureus.
The next data set concerns Ser. marcescens. The data set is described as follows: MIC against various organisms (Table I). It counts as cell-based. To be noted: Serratia marcescens, read-out: minimum inhibitory concentration.
The nature of a further data set: in vivo. Set-up: species or system mice. The conditions noted are these: mouse, po, 50 mg/kg.
A further data set concerns E. coli. Description: MIC against various organisms (Table I). To be noted: Escherichia coli, read-out: minimum inhibitory concentration. The format is cell-based.
Another data set has as its system Str. pyogenes. The data set is described as follows: MIC against various organisms (Table I). It counts as cell-based. To be noted: Streptococcus pyogenes; Str. pyogenes + 5% serum; read-out: minimum inhibitory concentration.
The test system of the next data set is S. aureus. Description: MIC against various organisms (Table I). The conditions noted are these: Staphylococcus aureus, read-out: minimum inhibitory concentration. The format is cell-based.
A further data set has as its system Pr. mirabilis. Description: MIC against various organisms (Table I). The conditions noted are these: Proteus mirabilis, read-out: minimum inhibitory concentration. The format is cell-based.
The next data set concerns Pr. morganii. Description: MIC against various organisms (Table I). The format is cell-based. To be noted: Morganella morganii, read-out: minimum inhibitory concentration.
The subject of another data set is S. aureus Smith. The data set is described as follows: MIC against various organisms (Table I). It counts as cell-based. The conditions noted are these: Staphylococcus aureus, read-out: minimum inhibitory concentration.
The test system of a further data set is Sal. enteritidis. Description: MIC against various organisms (Table I). The format is cell-based. The conditions noted are these: Salmonella enterica, read-out: minimum inhibitory concentration.
The next data set concerns E. coli Juhl. Description: MIC against various organisms (Table I). The format is cell-based. To be noted: Escherichia coli, read-out: minimum inhibitory concentration.
The test system of a further data set is K. pneumoniae. Description: MIC against various organisms (Table I). It counts as cell-based. The conditions noted are these: Klebsiella pneumoniae, read-out: minimum inhibitory concentration.
Where [4] appears, read: man, oral 500 mg., six subjects.

For the molecule `COCOC(=O)[C@@H]1N2C(=O)[C@@H](N3C(=O)[C@@H](c4ccccc4)NC3(C)C)[C@H]2SC1(C)C` [BL-P1761, methoxymethyl ester of hetacillin], in data set [1], the “hydrolysis of the ester” value is given as “hydrolyze eventually to their parent penicillins”.

Regarding `COCOC(=O)[C@@H]1N2C(=O)[C@@H](NC(=O)[C@H](N)c3ccc(O)cc3)[C@H]2SC1(C)C` [Example 5, methoxymethyl ester of amoxicillin], in [2], the bioassay of amoxicillin came to 1968 µg/mL and the “bioassay of amoxicillin, percent of theory” value is reported as “about 110 % of theory”.

`CC1(C)S[C@@H]2[C@H](NC(=O)[C@H](N)c3ccc(O)cc3)C(=O)N2[C@H]1C(=O)O` [amoxicillin, D-6-(p-hydroxy-α-aminophenylacetamido)penicillanic acid] registered a Cmax in data set [3] (human, po, 500 mg, maximum saliva amoxicillin level, man, oral 500 mg.) of 60 ng/mL. In addition, in [3] (human, po, 500 mg, mean peak saliva amoxicillin level, man, oral 500 mg.), the highest level (Cmax) was 30 ng/mL. Besides, the dose excreted at 24 h in [3] (human, urine, po, 500 mg) worked out at 50.9%. Moreover, the “time course of saliva amoxicillin levels” value in [3] (man, oral 500 mg.) was “delayed and erratic”. Besides, in data set [3] (setting [4]), the “subjects found to be slow absorbers” value was “Two of the six subjects” and the “subjects with detectable saliva amoxicillin levels” value was “only 3 of the 6 subjects”.

Consider `CC1(C)S[C@@H]2[C@H](NC(=O)[C@H](N)c3ccccc3)C(=O)N2[C@H]1C(=O)O` [Cpd. A, ampicillin], for which the MIC in the data set on Ps. aeruginosa is above 125 µg/mL; in the data set with D. pneumoniae it was 0.004 µg/mL; in the data set on S. aureus BX1633 (BX1633, read-out: minimum inhibitory concentration, S. aureus BX1633, first of two lines), 125 µg/mL (≈ 358 µM); in the data set on S. aureus BX1633 (BX1633, read-out: minimum inhibitory concentration, S. aureus BX1633, second of two lines), above 125 µg/mL; in the data set on Ser. marcescens it was 32 µg/mL (≈ 91.6 µM); in the data set on E. coli, 32 µg/mL (≈ 91.6 µM). Further, the MIC in the data set on Str. pyogenes was 0.004 µg/mL; in the data set with S. aureus (first of three lines) it was 125 µg/mL (≈ 358 µM); in the data set on S. aureus (second of three lines), 125 µg/mL (≈ 358 µM); in the data set on S. aureus (third of three lines), above 125 µg/mL; in the data set on Pr. mirabilis, 0.16 µg/mL (≈ 0.458 µM); in the data set on Pr. morganii, above 125 µg/mL. The MIC with S. aureus Smith (S. aureus Smith + 50% serum) is 0.06 µg/mL; in the data set with S. aureus Smith (S. aureus Smith), 0.03 µg/mL (≈ 0.0859 µM); in the data set with Sal. enteritidis, 0.13 µg/mL (≈ 0.372 µM); with E. coli Juhl it was 1 µg/mL (≈ 2.86 µM); with K. pneumoniae (K. pneumoniae, first of two lines), 0.3 µg/mL (≈ 0.859 µM); in the data set on K. pneumoniae it was 125 µg/mL (≈ 358 µM). This molecule came in with a concentration at 0.5 h in the data set “in vivo” of 3300 ng/mL. The molecule also returned a concentration at 1 h in “in vivo” of 2100 ng/mL. In addition, in “in vivo”, the concentration at 2 h came out at 900 ng/mL. In the data set “in vivo”, the concentration at 3.5 h amounted to 500 ng/mL.

These data come from patent US4185015A, “Methoxymethyl 6-[D-2,2-dimethyl-4-(4-hydroxyphenyl)-5-oxo-1-imidazolyl]penicillanate” (priority 1977, dated 1980).
